Results as given in ChEMBL document CHEMBL4339208, “6-Bromoindolglyoxylamido derivatives as antimicrobial agents and antibiotic enhancers” (Bioorg Med Chem, 2019).
pIC50: −log10 of the molar value. ≈ marks a conversion by molar mass, not a printed value. Calls of active or inactive are those of the source. The rule behind the calls is not given here.

Legend:
Klebsiella pneumoniae [1] = assay: Antibacterial activity against Klebsiella pneumoniae ATCC 700603 measured after 18 hrs by resazurin dye based assay; type: functional
Staphylococcus aureus [2] = assay: Antibacterial activity against Staphylococcus aureus ATCC 25923 measured after 18 hrs by broth dilution method; type: functional; conditions: ATCC 25923, 18 h
[3] = Cytotoxicity against HEK293 cells measured after 20 hrs by resazurin dye based fluorescence assay; type: cell-based, Homo sapiens; conditions: human, HEK293 cells
Escherichia coli = assay: Antibacterial activity against Escherichia coli ATCC 25922 measured after 18 hrs by broth dilution method; type: functional
Pseudomonas aeruginosa [4] = assay: Antibacterial activity against Pseudomonas aeruginosa ATCC 27853 measured after 18 hrs by broth dilution method; type: functional
Candida albicans [5] = assay: Antifungal activity against Candida albicans ATCC 90028 measured after 36 hrs; type: functional; conditions: ATCC 90028, 36 h
L6 = assay: Cytotoxicity against rat L6 cells measured after 72 hrs by alamar blue assay; type: cell-based; conditions: L6, 72 h
Erythrocyte [6] = assay: Hemolytic activity against human RBC incubated for 10 mins under shaking condition measured after 1 hr; type: ADME, cell-based
Acinetobacter baumannii [7] = assay: Antibacterial activity against Acinetobacter baumannii ATCC 19606 measured after 18 hrs by resazurin dye based assay; type: functional
Pseudomonas aeruginosa [8] = assay: Potentiation of doxycycline-induced antibacterial activity against Pseudomonas aeruginosa ATCC 27853 assessed as concentration required to restore 2 ug/ml doxycycline activity measured after 18 hrs; type: functional
Cryptococcus neoformans [9] = assay: Antifungal activity against Cryptococcus neoformans ATCC 208821 measured after 36 hrs by resazurin dye based assay; type: functional; conditions: ATCC 208821, 36 h
Staphylococcus aureus [10] = assay: Induction of membrane depolarization in Staphylococcus aureus ATCC 25923 measured after 15 mins by DiSC3(5) dye based spectrofluorometric method; type: functional, organism-based
Staphylococcus aureus [11] = assay: Disruption of membrane integrity in Staphylococcus aureus ATCC 25923 assessed as increase in extracellular ATP level at 10 uL by luciferin-luciferase reagent based luminescence assay; type: functional, organism-based
Pseudomonas aeruginosa [12] = assay: Disruption of membrane integrity in Pseudomonas aeruginosa PAO1 assessed as decrease in intracellular ATP level at 1% by luciferin-luciferase reagent based luminescence assay relative to control; type: functional, organism-based; design: scale not given: the % may be the effect or the level left
Pseudomonas aeruginosa [13] = assay: Disruption of membrane integrity in Pseudomonas aeruginosa PAO1 assessed as increase in extracellular ATP level at 10 uL by luciferin-luciferase reagent based luminescence assay; type: functional, organism-based
[14] = test system: Staphylococcus intermedius; assay: Antibacterial activity against Staphylococcus intermedius 1051997 measured after 18 hrs by broth dilution method; type: functional; conditions: Staphylococcus intermedius, 1051997, 18 h
Acinetobacter baumannii [15] = assay: Antibacterial activity against Acinetobacter baumannii ATCC 19606 at 32 ug/ml measured after 18 hrs by resazurin dye based assay; type: functional, organism-based; conditions: ATCC 19606 = CIP 70.34 = JCM 6841
Erythrocyte [16] = assay: Hemolytic activity against human RBC at 32 ug/ml incubated for 10 mins under shaking condition measured after 1 hr; type: ADME, cell-based
Klebsiella pneumoniae [17] = assay: Antibacterial activity against Klebsiella pneumoniae ATCC 700603 at 32 ug/ml measured after 18 hrs by resazurin dye based assay; type: functional, organism-based
Candida albicans [18] = assay: Antifungal activity against Candida albicans ATCC 90028 at 32 ug/ml measured after 36 hrs; type: functional, organism-based
Cryptococcus neoformans [19] = assay: Antifungal activity against Cryptococcus neoformans ATCC 208821 at 32 ug/ml measured after 36 hrs by resazurin dye based assay; type: functional, organism-based
[20] = Klebsiella pneumoniae, 700603, 18 h
[21] = ATCC 19606 = CIP 70.34 = JCM 6841, 18 h

Compound | MIC (Klebsiella pneumoniae [1]; [20]) [µM] | MIC (Staphylococcus aureus [2]) [µM] | CC50 at 20 h [3] [µM] | MIC (Escherichia coli; ATCC 25922, 18 h) [µM] | MIC (Pseudomonas aeruginosa [4]; ATCC 27853, 18 h) [µM] | MIC (Candida albicans [5]) | pIC50 (L6) | HC10 (Erythrocyte [6]) | MIC (Acinetobacter baumannii [7]; [21]) [µM] | Activity (Pseudomonas aeruginosa [8]) [µM] | MIC (Cryptococcus neoformans [9]) | MIC [14] [µM] | Activity (Acinetobacter baumannii [15]) | Activity (Klebsiella pneumoniae [17]) | Activity (Candida albicans [18]) | Activity (Cryptococcus neoformans [19]) | also measured
O=C(NCCCNCCCCCCCCCCNCCCNC(=O)C(=O)c1c[nH]c2cc(Br)ccc12)C(=O)c1c[nH]c2cc(Br)ccc12.O=C(O)C(F)(F)F.O=C(O)C(F)(F)F | 31.5 | 12.3 | 6.03 | 24.6 | 24.6 | 1.97 µM | 4.91 | 7.88 µM | 31.5 | 6.16 | < 0.25 µM | – | – | – | – | – | –
OC(Cn1cncn1)(Cn1cncn1)c1ccc(F)cc1F [FLUCONAZOLE] | – | – | – | – | – | 0.125 µg/mL | – | – | – | – | 8 µg/mL | – | – | – | – | – | –
CC(C)[C@@H](CC[C@@H](C)[C@H]1CC[C@H]2[C@@H]3[C@H](O)C[C@H]4C[C@@H](NCCCNCCCCN)CC[C@]4(C)[C@H]3CC[C@]12C)OS(=O)(=O)O | – | – | – | – | – | – | – | – | – | – | – | – | – | – | – | – | Activity (Staphylococcus aureus [10]): Dose-dependent effect
Cetyl trimethylammonium bromide | – | – | – | – | – | – | – | – | – | – | – | – | – | – | – | – | Activity (Staphylococcus aureus [11]): Active; Activity (Pseudomonas aeruginosa [12]): 10%; Activity (Pseudomonas aeruginosa [13]): Active
CN[C@@H]1[C@H](O[C@H]2[C@H](O[C@H]3[C@H](O)[C@@H](O)[C@H](N=C(N)N)[C@@H](O)[C@@H]3N=C(N)N)O[C@@H](C)[C@]2(O)C=O)O[C@@H](CO)[C@H](O)[C@H]1O [STREPTOMYCIN] | – | 21.5 (≈ 12.5 µg/mL) | – | 21.5 (≈ 12.5 µg/mL) | 21.5 (≈ 12.5 µg/mL) | – | – | – | – | – | – | 10.7 (≈ 6.22 µg/mL) | – | – | – | – | –
O=C(NCCCCNCCCNC(=O)C(=O)c1c[nH]c2cc(Br)ccc12)C(=O)c1c[nH]c2cc(Br)ccc12 | > 50 | 3.12 (≈ 2.02 µg/mL) | 2.32 | > 200 | 50 (≈ 32.3 µg/mL) | > 50 µM | 5.06 | > 50 µM | > 50 | >200 | 50 µM | 3.12 (≈ 2.02 µg/mL) | inactive | inactive | inactive | – | Activity (Erythrocyte [16]): Non-Toxic
O=C(NCCCCCCCCCCCCNC(=O)C(=O)c1c[nH]c2cc(Br)ccc12)C(=O)c1c[nH]c2cc(Br)ccc12 | > 46 | > 200 | > 46 | > 200 | > 200 | > 46 µM | 4.05 | – | > 46 | >200 | > 46 µM | 100 (≈ 70 µg/mL) | inactive | inactive | inactive | inactive | –
O=C(NCCCNCCNC(=O)C(=O)c1c[nH]c2cc(Br)ccc12)C(=O)c1c[nH]c2cc(Br)ccc12 | > 52 | 12.5 (≈ 7.72 µg/mL) | > 52 | > 200 | > 200 | > 52 µM | 4.05 | – | > 52 | >200 | > 52 µM | 50 (≈ 30.9 µg/mL) | inactive | inactive | inactive | inactive | –
CC[C@H](C)[C@H](NC(=O)CN)C(=O)NCC(=O)N[C@@H](C)C(=O)N[C@H](C(=O)N[C@@H](CC(C)C)C(=O)N[C@@H](CCCCN)C(=O)N[C@H](C(=O)N[C@@H](CC(C)C)C(=O)N[C@H](C(=O)N[C@H](C(=O)NCC(=O)N[C@@H](CC(C)C)C(=O)N1CCC[C@H]1C(=O)N[C@@H](C)C(=O)N[C@@H](CC(C)C)C(=O)N[C@H](C(=O)N[C@@H](CO)C(=O)N[C@@H](Cc1c[nH]c2ccccc12)C(=O)N[C@H](C(=O)N[C@@H](CCCCN)C(=O)N[C@@H](CCCNC(=N)N)C(=O)N[C@@H](CCCCN)C(=O)N[C@@H](CCCNC(=N)N)C(=O)N[C@@H](CCC(N)=O)C(=O)N[C@@H](CCC(N)=O)C(N)=O)[C@@H](C)CC)[C@@H](C)CC)[C@@H](C)O)[C@@H](C)O)C(C)C)C(C)C [MELITTIN] | – | – | – | – | – | – | – | 2.7 µg/mL | – | – | – | – | – | – | – | – | –
O=C(NCCCNCCCCCCCNCCCNC(=O)C(=O)c1c[nH]c2cc(Br)ccc12)C(=O)c1c[nH]c2cc(Br)ccc12.O=C(O)C(F)(F)F.O=C(O)C(F)(F)F | > 33 | 6.4 | 10.6 | 51.4 | 51.4 | 16.5 µM | 5.36 | > 33 µM | > 33 | 12.9 | > 33 µM | – | inactive | inactive | – | inactive | Activity (Erythrocyte [16]): Non-Toxic
CN(C)CCNC(=O)C(=O)c1c[nH]c2cc(Br)ccc12 | > 95 | > 200 | > 95 | > 200 | > 200 | > 95 µM | 4.00 | – | > 95 | >200 | > 95 µM | 12.5 (≈ 4.23 µg/mL) | inactive | inactive | inactive | inactive | –
O=C(NCCCNCCCCCCNCCCNC(=O)C(=O)c1c[nH]c2cc(Br)ccc12)C(=O)c1c[nH]c2cc(Br)ccc12.O=C(O)C(F)(F)F.O=C(O)C(F)(F)F | > 33.4 | 6.5 | 17.1 | 52.2 | > 200 | 8.35 µM | 5.24 | 18 µM | > 33.4 | 6.52 | 33.4 µM | – | inactive | inactive | – | – | –
COLISTIN | – | – | – | – | – | – | – | – | – | – | – | – | – | – | – | – | MIC (Klebsiella pneumoniae [1]): 0.25 µg/mL; MIC (Escherichia coli): 1 µM; MIC (Pseudomonas aeruginosa [4]): 2 µM; MIC (Acinetobacter baumannii [7]; ATCC 19606 = CIP 70.34 = JCM 6841): 0.25 µg/mL
O=C(NCCCCNC(=O)C(=O)c1c[nH]c2cc(Br)ccc12)C(=O)c1c[nH]c2cc(Br)ccc12 | > 54 | > 200 | > 54 | > 200 | > 200 | > 54 µM | < 3.82 | – | > 54 | >200 | > 54 µM | > 200 | inactive | inactive | inactive | inactive | –
O=C(NCCN1CCOCC1)C(=O)c1c[nH]c2cc(Br)ccc12 | > 84 | > 200 | > 84 | > 200 | > 200 | > 84 µM | 3.80 | – | > 84 | >200 | > 84 µM | 12.5 (≈ 4.75 µg/mL) | inactive | inactive | inactive | inactive | –
O=C(NCCCNCCCCCCCCNCCCNC(=O)C(=O)c1c[nH]c2cc(Br)ccc12)C(=O)c1c[nH]c2cc(Br)ccc12.O=C(O)C(F)(F)F.O=C(O)C(F)(F)F | > 32.4 | 50 | 6.2 | 50 | 6.25 | 8.11 µM | 5.25 | > 32 µM | > 32.4 | 25 | 32.4 µM | 12.5 | inactive | inactive | – | – | Activity (Erythrocyte [16]): Non-Toxic
O=C(NCCCNCCCCCCCCCCCCNCCCNC(=O)C(=O)c1c[nH]c2cc(Br)ccc12)C(=O)c1c[nH]c2cc(Br)ccc12.O=C(O)C(F)(F)F.O=C(O)C(F)(F)F | > 32 | > 200 | 9.72 | > 200 | > 200 | 7.67 µM | 5.80 | 2.18 µM | > 32 | >200 | 7.67 µM | – | inactive | inactive | – | – | –
O=C(NCCCOCCOCCOCCCNC(=O)C(=O)c1c[nH]c2cc(Br)ccc12)C(=O)c1c[nH]c2cc(Br)ccc12 | > 44 | > 200 | > 44 | > 200 | > 200 | > 44 µM | 4.12 | – | > 44 | >200 | > 44 µM | 12.5 (≈ 9.01 µg/mL) | inactive | inactive | inactive | inactive | –
